Experimental data: article PMC5439065, “Effect of Naringenin, Quercetin, and Sesamin on Xenobiotica-Metabolizing CYP1A and CYP3A in Mice Offspring after Maternal Exposure to Persistent Organic Pollutants” (BioMed Research International, 2017)

Experiments:
CYP1A = assay: In vitro inhibition of EROD (7-ethoxyresorufin O-dealkylase) activity in hepatic microsomes; details: for Inhibition of EROD activity: all exposure groups, concentrations 5 to 100000 nM; for Ki at 5 min: CD-1, mouse, liver microsomes, pH 7.4, probe 7-ethoxyresorufin (0.005 to 4.0 µM)
Protocol: (§1) Liver samples were taken immediately after necropsy, frozen in ethanol and dry ice, and stored at −80°C until use. The microsomal fractions were prepared using a calcium aggregation method. Microsomal protein concentration was determined with a commercially available kit (Bio-Rad laboratories Inc., Hercules, CA, USA) according to the manufacturer's instructions.
(§2) In mice, O-dealkylation of 7-ethoxyresorufin is catalyzed by CYP1A1 and CYP1A2 [15], and O-dealkylation of 7-benzyloxyresorufin by CYP3A11 enzyme. The activities of CYP1A and CYP3A were determined as a rate of ethoxy- (EROD) and benzyloxy- (BROD) resorufin O-dealkylation, respectively. Incubation mixtures contained microsomal protein (0.2 mg), phosphate buffer (pH 7.4, 50 mM), and appropriate substrate (1 μM of 7-ethoxyresorufin or 2 μM of 7-benzyloxyresorufin). Reactions were initiated by the addition of 0.5 mM NADPH. The reaction mixture, in a final volume of 500 μL, was incubated in a water bath at 37°C for 5 min (EROD) or 7 min (BROD), and afterwards the reactions were terminated with ice-cold methanol (500 μL), followed by centrifugation at 7,500 ×g. Resorufin concentrations were measured as previously described. EROD and BROD activities were expressed as pmol of resorufin per milligram protein and minute.
(§3) EROD and BROD activities were initially evaluated in the presence of quercetin, naringenin, and sesamin at nine concentrations from 5 to 100000 nM. To examine the inhibition mode, the activities were determined in the presence of 2 or 3 inhibitor concentrations over the substrate concentration ranges 0.005 to 4.0 μM for EROD and 0.05 to 8 μM for BROD, respectively. The stock solutions of quercetin, naringenin, and sesamin were prepared in DMSO and added to incubations to yield final concentrations of 5, 10, 50, 100, 500, 1000, 2000, […], and 100000 nM. The final DMSO content in the incubations was 0.5%. The control incubations contained the same concentration of DMSO.
(§4) Comparison of enzymatic activities in the absence of the inhibitors between studied groups was performed on logarithmically transformed values using a mixed model with fixed effect of treatment (SAS version 9.3, SAS Institute Inc., Cary, NC, USA). The IC50 (concentration causing 50% reduction of control activity) and Ki values for inhibitors were calculated by nonlinear regression analysis using GraphPad prism version 4.0 for Windows (GraphPad, San Diego, CA, USA). Comparisons of IC50 and Ki values between the studied groups were performed on logarithmically transformed values using one-way analysis of variance, followed by the Tukey multiple-comparisons test. Differences were regarded as significant when P < 0.05.

CYP3A (CYP3A11) = biological target: T1, CYP3A (CYP3A11) (Mus musculus, UniProt Q64459); assay: in vitro; details: CD-1, mouse, microsomes; for IC50 at 7 min: pH 7.4, IC50, CYP3A (BROD), 2 μM 7-benzyloxyresorufin
T1 sequence (Q64459 1-504): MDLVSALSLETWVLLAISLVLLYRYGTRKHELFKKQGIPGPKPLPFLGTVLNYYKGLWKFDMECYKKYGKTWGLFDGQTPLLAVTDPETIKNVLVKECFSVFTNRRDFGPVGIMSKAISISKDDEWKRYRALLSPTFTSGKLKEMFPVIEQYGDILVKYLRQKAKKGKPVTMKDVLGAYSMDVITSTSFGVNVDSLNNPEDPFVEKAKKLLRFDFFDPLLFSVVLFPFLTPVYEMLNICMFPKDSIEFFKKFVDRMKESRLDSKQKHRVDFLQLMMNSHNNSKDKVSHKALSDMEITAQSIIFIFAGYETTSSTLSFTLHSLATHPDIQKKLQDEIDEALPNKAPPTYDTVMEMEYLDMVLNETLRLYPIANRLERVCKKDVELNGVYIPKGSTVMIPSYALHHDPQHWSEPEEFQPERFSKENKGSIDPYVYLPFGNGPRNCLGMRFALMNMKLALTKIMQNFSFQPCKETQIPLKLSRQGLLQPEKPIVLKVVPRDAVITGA
Protocol: as §1, §2, §3, §4

CYP3A = biological target: T2, CYP3A (Mus musculus, UniProt Q64459); assay: in vitro; details: 2 or 3 inhibitor concentrations, substrate 0.05 to 8 μM
T2 sequence (Q64459 1-504): T1 sequence (Q64459 1-504)
Protocol: as §1, §2, §3, §4

[1] = tested on: CYP1A (CYP1A1 and CYP1A2); assay: In vitro inhibition of EROD (7-ethoxyresorufin O-dealkylase) activity in hepatic microsomes; details: CD-1, mouse, liver microsomes, pH 7.4, probe 7-ethoxyresorufin (1 µM), IC50, CYP1A (EROD), geometric mean (confidence interval), 1 μM 7-ethoxyresorufin
Protocol: as §1, §2, §3, §4

[2] = microsomes from high POPs-exposed mice, geometric mean (confidence interval)
[3] = microsomes from low POPs-exposed mice, geometric mean (confidence interval)
[4] = microsomes from unexposed mice, geometric mean (confidence interval)
[5] = pH 7.4, Ki values, BROD activity, range over the unexposed, low- and high-exposed groups
[6] = pH 7.4, Ki, CYP3A (BROD), microsomes from high POPs-exposed mice, geometric mean (confidence interval)
[7] = pH 7.4, Ki, CYP3A (BROD), microsomes from low POPs-exposed mice, geometric mean (confidence interval)
[8] = pH 7.4, Ki, CYP3A (BROD), microsomes from unexposed mice, geometric mean (confidence interval)

O=C1C[C@@H](c2ccc(O)cc2)Oc2cc(O)cc(O)c21 [Naringenin, naringenin]
Inhibition of EROD activity (CYP1A): No inhibition
Inhibition of EROD activity (CYP1A; listed as naringenin): Neither naringenin nor sesamin inhibited
IC50 at 7 min (CYP3A (CYP3A11); [2]): 43.1 µM
IC50 at 7 min (CYP3A (CYP3A11); [3]): 49.1 µM
IC50 at 7 min (CYP3A (CYP3A11); [4]): 40.3 µM
Ki at 7 min (CYP3A (CYP3A11); [5]): 39.3 to 45.8 µM
Ki at 7 min (CYP3A (CYP3A11); [6]): 39.3 µM
Ki at 7 min (CYP3A (CYP3A11); [7]): 45.8 µM
Ki at 7 min (CYP3A (CYP3A11); [8]): 42.1 µM
Mode of inhibition of BROD activity (CYP3A): noncompetitively inhibited

O=c1c(O)c(-c2ccc(O)c(O)c2)oc2cc(O)cc(O)c12 [Quercetin, quercetin]
IC50 at 5 min ([1]; microsomes from high POPs-exposed mice): 5.8 µM
IC50 at 5 min ([1]; microsomes from low POPs-exposed mice): 5.1 µM
IC50 at 5 min ([1]; microsomes from unexposed mice): 5.4 µM
Mode of inhibition of EROD activity (CYP1A; 2 or 3 inhibitor concentrations, substrate 0.005 to 4.0 μM): competitively inhibited
Ki at 5 min (CYP1A; Ki values, EROD activity, range over the unexposed, low- and high-exposed groups): 1.7 to 2.6 µM
Ki at 5 min (CYP1A; Ki, CYP1A (EROD), microsomes from high POPs-exposed mice, geometric mean (confidence interval)): 2.6 µM
Ki at 5 min (CYP1A; Ki, CYP1A (EROD), microsomes from low POPs-exposed mice, geometric mean (confidence interval)): 2.6 µM
Ki at 5 min (CYP1A; Ki, CYP1A (EROD), microsomes from unexposed mice, geometric mean (confidence interval)): 1.7 µM
Inhibition of EROD activity (CYP1A): strongly inhibited
IC50 at 7 min (CYP3A (CYP3A11); [2]): 35.7 µM
IC50 at 7 min (CYP3A (CYP3A11); [3]): 27.1 µM
IC50 at 7 min (CYP3A (CYP3A11); [4]): 30.2 µM
Ki at 7 min (CYP3A (CYP3A11); [5]): 64.9 to 75.3 µM
Ki at 7 min (CYP3A (CYP3A11); [6]): 75.3 µM
Ki at 7 min (CYP3A (CYP3A11); [7]): 64.9 µM
Ki at 7 min (CYP3A (CYP3A11); [8]): 67.1 µM
Mode of inhibition of BROD activity (CYP3A): noncompetitively inhibited
